# Columns and labels:
# [1] = Chromatographic LogD at pH 7.4; conditions: pH 7.4
# CAD aqueous solubility = experiment: CAD aqueous solubility
# Experimental: (§1) To understand cellular target engagement, 21 was tested in an LPS-stimulated hWB assay measuring inhibition of the inflammatory mediator MCP-1 secretion.
# ChromatographicLogD at pH 7.4, artificial membrane permeability, CLND solubility, and CAD solubility were measured using published protocols.[55]
# BRD4 BD2 = BRD4 BD2 TR-FRET assay; format: binding, human
# Experimental: (§2) As a strategic decision, every compound synthesized across all of GSK’s bromodomain research projects was tested in both a BRD4 BD1 and a BRD4 BD2 TR-FRET assay as part of tier 1 data generation. […] LipE is a straightforward, yet powerful metric for medicinal chemistry teams to normalize potency relative to lipophilicity, a critical factor both for parameters of the human dose equation and also for promiscuity.[43],[44] To aid interpretation, diagonal lines representing different LipE values are shown, with the most desirable space found toward the top left-hand area of the plot representing molecules with the comparatively highest potency per unit of lipophilicity.
# (§3) All TR-FRET and hWB cytokine assays have been described previously.[54]
# BRD4 BD1 [2] = format: binding, human; conditions: TR-FRET
# Experimental: as §2, §3
# MCP-1 = experiment: LPS-stimulated human whole blood (hWB) MCP-1 release assay; format: cell-based; conditions: LPS-stimulated human whole blood; read-out: hWB MCP-1 pIC50 (converted)
# Excerpt: The utility of a chemical probe in target validation is directly related to its quality, with important publications detailing requirements to aid researchers.[36]−[38] […] It was accepted that selectivity would be judged initially through a mutant BRD4 TR-FRET assay and would likely shift depending on the protein construct and assay format. […] Previous studies have shown that BET BD1 inhibition is sufficient to inhibit in vitro production of MCP-1 in LPS-stimulated hWB and, as such, served as a relevant measure of cellular target engagement and, concomitantly, proof of cellular permeability.[12],[39] Selectivity over other human bromodomains outside of the BET family, known collectively as non-BET bromodomains, was also required,[40] with a ≥ 100-fold selectivity window targeted. To ensure the molecules remained within developable chemical space, a target property forecast index (PFI) as defined by chromLogDpH7.4 + number of aromatic rings ≤6 was set.[41]
# as §1, §3
# BET BD2 = conditions: cited from earlier work
# BET BD1 = conditions: cited from earlier work
# BRD4 BD1 [3] = conditions: literature compound, no reference given; cited from earlier work
# [4] = CLND kinetic aqueous solubility
smiles,measurement,setting,value
"Cc1cc(-c2nc3ccccc3n2C[C@@H]2CCCN(C(=O)C3CCN(CCF)CC3)C2)cn(C)c1=O [Compound 34, (S)-5-(1-((1-(1-(2-Fluoroethyl)piperidine-4-carbonyl)piperidin-3-yl)methyl)-1H-benzo[d]imidazole-2-yl)-1,3-dimethylpyridin-2(1H)-one]",chromatographic logD,[1],2.5
same,solubility,CAD aqueous solubility,≥ 207 µg/mL
same,BRD4 BD2 FRET pIC50,BRD4 BD2,4.7
same,pKa,pKa of the basic amine,7.3
same,BRD4 BD1 FRET pIC50,BRD4 BD1 [2],7.6
same,fold selectivity (BRD4 BD1 over BRD4 BD2),BRD4 BD1 [2],794 fold
same,IC50,MCP-1,63.1 nM
COc1cc(OC)c2c(=O)[nH]c(-c3cc(C)c(OCCO)c(C)c3)nc2c1 [Apabetalone/RVX-208],BD2 selectivity over BET BD1,BET BD2,10 fold
"Cc1cc(-c2nc3ccccc3n2C[C@@H]2CCCN(C(=O)C3CCN(CC(F)F)CC3)C2)cn(C)c1=O [Compound 35, (S)-5-(1-((1-(1-(2,2-Difluoroethyl)piperidine-4-carbonyl)piperidin-3-yl)methyl)-1H-benzo[d]imidazole-2-yl)-1,3-dimethylpyridin-2(1H)-one]",chromatographic logD,[1],3.2
same,solubility,CAD aqueous solubility,≥ 279 µg/mL
same,BRD4 BD2 FRET pIC50,BRD4 BD2,4.7
same,pKa,pKa of the basic amine,4.2
same,BRD4 BD1 FRET pIC50,BRD4 BD1 [2],6.7
same,fold selectivity (BRD4 BD1 over BRD4 BD2),BRD4 BD1 [2],100 fold
same,IC50,MCP-1,631 nM
COCc1nc2cnc3cc(-c4c(C)noc4C)c(OC[C@H]4CCNC4)cc3c2n1[C@H](C)c1ccccc1 [GSK778],IC50,BET BD1,< 100 nM
same,selectivity for BET BD1 over BET BD2,BET BD1,30–140 fold
COc1ccccc1S(=O)(=O)Nc1ccc2c3c(cc(-n4cnc(C)c4)nc13)C(=O)N2C [LT052],IC50,BRD4 BD1 [3],88 nM
same,selectivity for BRD4 BD1 over BRD4 BD2,BRD4 BD1 [3],138 fold
CCNC(=O)c1cc2c(-c3cc(C(C)(C)O)ccc3Oc3c(C)cc(F)cc3C)cn(C)c(=O)c2[nH]1 [ABBV-744],BD2 selectivity over BET BD1,BET BD2,330 fold
"CC(=O)N1CCC[C@@H](Cn2c(-c3cc(C)c(=O)n(C)c3)nc3cc(Br)ccc32)C1 [Compound 14, (S)-5-(1-((1-Acetylpiperidin-3-yl)methyl)-5-bromo-1H-benzo[d]imidazole-2-yl)-1,3-dimethylpyridin-2(1H)-one]",chromatographic logD,[1],3.3
same,BRD4 BD2 FRET pIC50,BRD4 BD2,6.3 ± 0.01 (2)
same,solubility,[4],≥ 250 µg/mL
same,BRD4 BD1 FRET pIC50,BRD4 BD1 [2],8.0 ± 0.06 (2)
same,fold selectivity (BRD4 BD1 over BRD4 BD2),BRD4 BD1 [2],50 fold

# Reference: PMC10726358 (Journal of Medicinal Chemistry, 2023)
